Values of other authors as cited in patent US20130040971A1, “6-CYCLOALKYL-PYRAZOLOPYRIMIDINONES FOR THE TREATMENT OF CNS DISORDERS” (Boehringer Ingelheim International GmbH, priority 2011, published 2013).

Legend:
[1] = biological target: human PDE9A (Homo sapiens, UniProt O76083); conditions: concentrations of up to 100 micromolar (μM)
[2] = biological target: T1, Murine PDE9A (Mus musculus, UniProt O70628); conditions: concentrations below 200 micromolar
T1 sequence (O70628 1-534): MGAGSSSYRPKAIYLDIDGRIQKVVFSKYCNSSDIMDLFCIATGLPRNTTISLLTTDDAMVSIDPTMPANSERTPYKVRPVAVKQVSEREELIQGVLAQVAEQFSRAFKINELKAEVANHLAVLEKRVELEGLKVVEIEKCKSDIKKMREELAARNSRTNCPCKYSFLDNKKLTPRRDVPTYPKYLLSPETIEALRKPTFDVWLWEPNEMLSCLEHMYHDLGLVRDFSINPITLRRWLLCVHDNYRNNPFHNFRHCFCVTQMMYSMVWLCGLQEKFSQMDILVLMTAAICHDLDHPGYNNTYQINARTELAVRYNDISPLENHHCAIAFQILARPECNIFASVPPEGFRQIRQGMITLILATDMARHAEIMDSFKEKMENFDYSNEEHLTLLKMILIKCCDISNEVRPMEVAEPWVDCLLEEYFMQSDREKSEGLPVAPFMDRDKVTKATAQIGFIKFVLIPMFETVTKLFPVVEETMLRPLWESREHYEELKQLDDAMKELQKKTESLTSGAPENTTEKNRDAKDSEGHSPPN

Sequence of human PDE9A (O76083 whole entry): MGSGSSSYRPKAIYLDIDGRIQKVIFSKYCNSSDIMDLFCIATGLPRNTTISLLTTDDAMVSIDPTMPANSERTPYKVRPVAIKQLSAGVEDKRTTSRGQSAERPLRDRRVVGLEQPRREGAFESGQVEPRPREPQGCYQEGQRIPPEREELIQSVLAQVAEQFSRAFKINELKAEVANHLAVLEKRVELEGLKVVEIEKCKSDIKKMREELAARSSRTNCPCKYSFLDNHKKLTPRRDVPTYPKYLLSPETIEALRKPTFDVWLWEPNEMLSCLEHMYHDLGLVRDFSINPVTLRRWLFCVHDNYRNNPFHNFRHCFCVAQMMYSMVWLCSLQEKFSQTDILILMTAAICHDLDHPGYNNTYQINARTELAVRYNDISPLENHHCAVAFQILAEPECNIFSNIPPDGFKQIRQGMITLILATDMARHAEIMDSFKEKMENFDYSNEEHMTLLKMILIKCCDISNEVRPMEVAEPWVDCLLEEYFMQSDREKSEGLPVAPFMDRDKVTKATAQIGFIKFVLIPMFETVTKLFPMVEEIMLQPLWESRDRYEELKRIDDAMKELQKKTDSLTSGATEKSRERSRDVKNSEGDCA

Compound	inhibition on the isolated enzyme (human PDE9A) [1]	inhibition of murine PDE9A [2]
OCCN(CCO)c1nc(N2CCCCC2)c2nc(N(CCO)CCO)nc(N3CCCCC3)c2n1 [dipyridamole]	no inhibition	–
CCOC(=O)C1=C[C@]2(CC)CCCN3CCc4c(n1c1ccccc41)[C@@H]32 [vinpocetine]	no inhibition	–

Other lines, results leading:

inhibition on the isolated enzyme (human PDE9A) [1]	inhibition of murine PDE9A [2]	Compound
no inhibition	not inhibited	CC(C)Cn1c(=O)n(C)c(=O)c2[nH]cnc21 [IBMX]
no inhibition	–	CC(=O)Nc1ccc(-c2c[nH]c(=O)cn2)cc1 [SKF94120]
no inhibition	–	COc1ccc(C2CNC(=O)C2)cc1OC1CCCC1 (stereo not drawn) [rolipram]
